For data set [1], the system named is Mycobacterium tuberculosis. Briefly: Antimycobacterial activity against Mycobacterium tuberculosis H37Ra after 16 to 24 hrs by alamar blue assay. It counts as functional. (Alamar Blue is a resazurin reagent that responds to reducing activity.)
The subject of data set [2] is Mycobacterium tuberculosis. Description: Antimycobacterial activity against Mycobacterium tuberculosis H37Rv after 16 to 24 hrs by alamar blue assay. It counts as functional.
The subject of data set [3] is Mycobacterium tuberculosis. Description: Antimycobacterial activity against p-aminosalicylic acid-resistant Mycobacterium tuberculosis H37Rv ATCC 35821 after 16 to 24 hrs by alamar blue assay. It counts as functional.
In data set [4] the test system is MRC5. Description: Cytotoxicity against human MRC5 cells at 1 ug/ml by MTT assay. It counts as cell-based. On the technique in general: Tetrazolium assays rely on reduction of a dye to a coloured formazan, in cell work by metabolically active cells.
The subject of data set [5] is MRC5. Description: Cytotoxicity against human MRC5 cells at 2 ug/ml by MTT assay. It counts as cell-based.
In data set [6] the test system is MRC5. Briefly: Cytotoxicity against human MRC5 cells at 2.1 ug/ml by MTT assay. It counts as cell-based.
Data set [7] concerns MRC5. Briefly: Cytotoxicity against human MRC5 cells at 6 ug/ml by MTT assay. It counts as cell-based.
In data set [8] the test system is MRC5. Description: Cytotoxicity against human MRC5 cells by MTT assay. It counts as cell-based.

Values after ≈ are worked out from the molar mass of the structure shown.

Take `COc1ccc2cc1-c1cc(ccc1O)C[C@@H]1NCCc3cc4c(cc31)Oc1c(c(OC)cc3c1[C@H](C2)N(C)CC3)O4`: the MIC (commonly the lowest concentration found to suppress growth) in data set [1] was found to be 3.1 µg/mL (≈ 5.51 µM); in data set [2], 3.1 µg/mL (≈ 5.51 µM); in data set [3] it was 1.5 µg/mL (≈ 2.67 µM). Further, the Activity entry in data set [4], in data set [5], in data set [6] and in data set [7] was “Non-toxic” in each case. In addition, the IC50 (as a rule, the concentration at which inhibition is half-maximal) in data set [8] stood at 3.8 µg/mL (≈ 6.75 µM).

Consider `COc1ccc2cc1-c1cc(cc(Br)c1O)C[C@H]1c3cc4c(cc3CCN1C)Oc1c(OC)cc3c(c1O4)[C@H](C2)N(C)CC3`, for which the MIC was 6.2 µg/mL (≈ 9.46 µM) in data set [1], 3.1 µg/mL (≈ 4.73 µM) in data set [2] and 1.5 µg/mL (≈ 2.29 µM) in data set [3]. Further, the Activity entry in data set [4], in data set [5], in data set [6] and in data set [7] was “Non-toxic” in each case. Further, the IC50 in data set [8] amounted to 20 µg/mL (≈ 30.5 µM).

In the case of `COc1ccc2cc1-c1cc(ccc1O)C[C@H]1c3cc4c(cc3CCN1C)Oc1c(OC)cc3c(c1O4)[C@@H](C2)N(C)CC3` [TILIACORINE], the MIC in data set [1], in data set [2] and in data set [3] was 3.1 µg/mL (≈ 5.38 µM) each time. The Activity result in data set [4], in data set [5], in data set [6] and in data set [7] was “Non-toxic” in each case. This compound also gave an IC50 in data set [8] of 3.87 µg/mL (≈ 6.71 µM).

For `COc1ccc2cc1-c1cc(ccc1O)C[C@H]1c3cc4c(cc3CCN1C)Oc1c(OC)cc3c(c1O4)[C@H](C2)N(C)CC3` [TILIACORININE], the values for the MIC in data set [1], in data set [2] and in data set [3] were 3.1 µg/mL (≈ 5.38 µM), 6.2 µg/mL (≈ 10.8 µM) and 3.1 µg/mL (≈ 5.38 µM), respectively. Also, the Activity result in data set [4], in data set [5], in data set [6] and in data set [7] was “Non-toxic” throughout. This compound also showed an IC50 in data set [8] of 3.13 µg/mL (≈ 5.43 µM).

The values are drawn from ChEMBL document CHEMBL2016451, “Antimycobacterial activity of bisbenzylisoquinoline alkaloids from Tiliacora triandra against multidrug-resistant isolates of Mycobacterium tuberculosis” (Bioorg Med Chem Lett, 2012).
